The record followed here is patent publication EP2077104A1, “Micellar compositions with ophtalmic applications” (Novagali Pharma S.A., priority 2008, dated 2009).

A short description of the series: Zeta potential of emulsion surface. In kind it is physicochemical. The conditions noted are these: 0.002% CKC in emulsion. An excerpt: Thus in preferred embodiments, micellar compositions of the present invention have a positive zeta potential. As known in the art, the zeta potential is a measure of the magnitude of repulsion or attraction between particles (Washington, Adv. Drug Deliv. Reviews, 1996, 20:131-145). The Zeta potential is not measurable directly but it can be calculated using theoretical models and an experimentally-determined electrophoretic mobility or dynamic electrophoretic mobility. As known in the art, electrophoretic mobility can be determined using micro-electrophoresis or electrophoretic light scattering.
All the eye drops were supplied by Novagali Pharma (Evry, France) and were sterile with physiological pH and osmolality. The present Applicants chose to compare 0.02% BAK to 0.002% CKC since these two QAC concentrations confer equivalent positive charge to the emulsion surface (zeta potential around 20 mV).

SMILES strings stand for the structures.

Take `CCCCCCCCCCCCCCCC[N+](C)(C)Cc1ccccc1` [Cetalkonium chloride, cetalkonium chloride]: the zeta potential entry is recorded as “around 20 mV”.
